Data on 41 compounds can be found in US10793582B2, “Bicyclic heterocyclic compound” (MITSUBISHI TANABE PHARMA CORPORATION, priority 2015, dated 2020).

This assay deals with human recombinant KAT-II (Homo sapiens (Human), UniProt Q8N5Z0). As to the kind of experiment: KAT-II inhibitory test. The note with it: 3.0 μmol/L kynurenine, 37° C. for 1 hr, kynurenic acid by HPLC. The assay is classed as biochemical. The method, then:
The compounds described in the above-mentioned Examples were used for the KAT-II inhibitory test.
Human recombinant KAT-II was prepared as follows.
His tag and maltose binding protein tag were added to the N-terminal of a gene encoding human KAT-II (Genbank accession number: AF481738.1), and the obtained gene was incorporated into pET32 (Merck Nihon Millipore), which is an Escherichia coli expression vector. Human recombinant KAT-II produced by BL21(DE3) Escherichia coli (Merck Nihon Millipore, 69450) transformed using the plasmid was purified using an amylose resin column (New England Biolabs, #800-21 L).
The inhibitory action of the test compound on human recombinant KAT-II was determined by the following method.
To a reaction mixture (45 μL) containing 3.0 μmol/L kynurenine, 10 μmol/L pyridoxal phosphate, 2.0 ng/μL human recombinant KAT-II, and 150 mmol/L tris(hydroxymethyl)aminomethane-acetate buffer (pH 8.0) was added a 10% dimethyl sulfoxide solution (5 μL) of each test compound prepared, and the mixture was reacted at 37° C. for 1 hr. After the reaction, 50% trichloroacetic acid (5 μL) was added to terminate the reaction.
The resultant kynurenic acid was quantified as follows by high performance liquid chromatography. An enzyme reaction mixture was separated by an octadecylsilane reversed-phase column (SC-50DS, Eicom Corporation; mobile phase: 250 mmol/L zinc acetate, 50 mmol/L sodium acetate, and 5.0% acetonitrile (pH 6.2)) incubated at 30° C., and kynurenic acid was quantified using a fluorescence detector (RF-20Axs, Shimadzu Corporation) at excitation wavelength 354 nm, detection wavelength 460 nm. The analytical curve was drawn every time by an external standard method. Each test compound was tested by dual measurement at each concentration. The kynurenic acid level in the presence of a test compound at each concentration was converted into % relative to kynurenic acid resulting from a reaction with an enzyme alone as 100%, and the obtained values were fitted to S-curve to determine IC50.

human recombinant KAT-II, sequence (Q8N5Z0 30-425): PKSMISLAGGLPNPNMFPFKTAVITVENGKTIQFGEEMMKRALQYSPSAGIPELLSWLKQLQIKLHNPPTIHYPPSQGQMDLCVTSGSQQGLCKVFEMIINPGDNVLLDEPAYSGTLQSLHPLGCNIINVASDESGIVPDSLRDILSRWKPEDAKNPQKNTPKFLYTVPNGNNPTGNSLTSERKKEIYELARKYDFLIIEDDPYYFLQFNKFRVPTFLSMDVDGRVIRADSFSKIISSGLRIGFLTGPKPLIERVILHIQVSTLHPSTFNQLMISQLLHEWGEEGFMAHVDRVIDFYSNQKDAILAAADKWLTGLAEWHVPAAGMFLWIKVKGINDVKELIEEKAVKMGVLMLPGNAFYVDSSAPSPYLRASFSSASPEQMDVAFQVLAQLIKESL

For the compound `CCOc1ncnc2nc(N3CCC[C@@H]3C(=O)NCc3ccccc3)sc12` [Example 19, (R)—N-benzyl-1-(7-ethoxy[1,3]thiazolo[4,5-d]pyrimidin-2-yl)pyrrolidine-2-carboxamide], the IC50 came out at 37 nM.

For the compound `O=C(NCc1ccccc1)[C@H]1CCCN1c1nc2ncnc(C3CC3)c2s1` [Example 23, (R)—N-benzyl-1-(7-cyclopropyl[1,3]thiazolo[4,5-d]pyrimidin-2-yl)pyrrolidine-2-carboxamide], the IC50 was 26 nM.

On to `CCc1ncnc2nc(N3CCC[C@@H]3C(=O)NCc3ccccc3)sc12` [Example 24], for which the IC50 was 200 nM.

Take `CCCc1ncnc2nc(N3CCC[C@@H]3C(=O)NCc3ccccc3)sc12` [Example 26]: the half-maximal inhibitory concentration (IC50) was found to be 120 nM.

Consider `CC(C)c1ncnc2nc(N3CCC[C@@H]3C(=O)NCc3ccccc3)sc12` [Example 28], for which the half-maximal inhibitory concentration (IC50) was 190 nM.

Consider `CC(C)(C)c1ncnc2nc(N3CCC[C@@H]3C(=O)NCc3ccccc3)sc12` [Example 30], for which the half-maximal inhibitory concentration (IC50) was 270 nM.

As to `CC1(c2ncnc3nc(N4CCC[C@@H]4C(=O)NCc4ccccc4)sc23)CC1` [Example 31, (R)—N-benzyl-1-[7-(1-methylcyclopropyl)[1,3]thiazolo[4,5-d]pyrimidin-2-yl]pyrrolidine-2-carboxamide], the IC50 came out at 65 nM.

As to `COCCc1ncnc2nc(N3CCC[C@@H]3C(=O)NCc3ccccc3)sc12` [Example 32], the IC50 was found to be 390 nM.

As for `COCc1ncnc2nc(N3CCC[C@@H]3C(=O)NCc3ccccc3)sc12` [Example 33], the IC50 was found to be 600 nM.

For `COCc1ncnc2nc(N3CCC[C@@H]3C(=O)N[C@H](C)c3ccccc3)sc12` [Example 34], the IC50 amounted to 640 nM.

For `O=C(NCc1ccccc1)[C@H]1CCCN1c1nc2ncnc(-c3ccccn3)c2s1` [Example 35], the IC50 was found to be 290 nM.

Regarding `C[C@H](C(=O)NCc1ccccc1)N(C)c1nc2ncnc(C3CC3)c2s1` [Example 36, (R)—N-benzyl-2-[N′-(7-cyclopropyl[1,3]thiazolo[4,5-d]pyrimidin-2-yl)-N′-methylamino]propionamide], the IC50 was 64 nM.

In the case of `COCCN(c1nc2ncnc(C3CC3)c2s1)[C@H](C)C(=O)NCc1ccccc1` [Example 38], the IC50 turned out to be 410 nM.

Take `C[C@H](C(=O)NCc1ccccc1)N(Cc1ccccn1)c1nc2ncnc(C3CC3)c2s1` [Example 39]: the IC50 came out at 350 nM.

In the case of `CCc1nc(C2CC2)nc2nc(N3CCC[C@@H]3C(=O)NCc3ccccc3)sc12` [Example 41], the IC50 was 170 nM.

For `O=C(NCc1ccccc1)[C@H]1CCCN1c1nc2nc(CC3CCOCC3)nc(C3CC3)c2s1` [Example 46], the IC50 turned out to be 35 nM.

Consider `O=C(NCc1ccccc1)[C@H]1CCCN1c1nc2nc(-c3ccncc3)nc(C3CC3)c2s1` [Example 49], for which the IC50 amounted to 76 nM.

Take `O=C(NCc1ccccc1)[C@H]1CCCN1c1nc2nc(C(F)F)nc(C3CCOCC3)c2s1` [Example 55]: the IC50 is 410 nM.

As to `COCc1nc(C(F)(F)F)c2sc(N3CCC[C@@H]3C(=O)NCc3ccccc3)nc2n1` [Example 56], the IC50 came to 230 nM.

`CN(C)Cc1nc(C2CC2)c2sc(N3CCC[C@@H]3C(=O)NCc3ccccc3)nc2n1` [Example 58]: the IC50 came out at 640 nM.

On to `O=C(NCc1ccccc1)[C@H]1CCCN1c1nc2ncnc(Oc3ccccc3)c2s1` [Example 66], for which the IC50 is 12 nM.

On to `CCNc1nc(C(F)(F)F)nc2nc(N3CCC[C@@H]3C(=O)NCc3ccccc3)sc12` [Example 67], for which the IC50 amounted to 12 nM.

Take `O=C(NCc1ccccc1)[C@H]1CCCN1c1nc2ncnc(OCC(F)(F)F)c2s1` [Example 70]: the IC50 was found to be 160 nM.

Consider `CCOc1nc(C2CCOCC2)nc2nc(N3CCC[C@@H]3C(=O)NCc3ccccc3)sc12` [Example 75], for which the IC50 amounted to 95 nM.

`CC(C)(C#N)c1ncnc2nc(N3CCC[C@@H]3C(=O)NCc3ccccc3)sc12` [Example 76, (R)—N-benzyl-1-[7-(2-cyanopropan-2-yl)[1,3]thiazolo[4,5-d]pyrimidin-2-yl]pyrrolidine-2-carboxamide]: the IC50 worked out at 1500 nM.

As for `Cc1nc(-c2ccc(F)cc2)nc2nc(N3CCC[C@@H]3C(=O)NCc3ccccc3)sc12` [Example 78], the IC50 was 550 nM.

On to `O=C(NCc1ccccc1)[C@H]1CCCN1c1nc2nc(COC3CCOCC3)nc(C3CC3)c2s1` [Example 83], for which the IC50 was found to be 13 nM.

Turning to `Cc1nc(OC2CCOCC2)nc2nc(N3CCC[C@@H]3C(=O)NCc3ccccc3)sc12` [Example 84], the IC50 is 390 nM.

As for `CCOc1nc(C)c2sc(N3CCC[C@@H]3C(=O)NCc3ccccc3)nc2n1` [Example 88], the IC50 amounted to 420 nM.

`O=C(NCc1ccccc1)[C@H]1CCCN1c1nc2ncnc(OC3CCC3)c2s1` [Example 89, (R)—N-benzyl-1-[7-(cyclobutyloxy)[1,3]thiazolo[4,5-d]pyrimidin-2-yl]pyrrolidine-2-carboxamide]: the IC50 was 46 nM.

As for `O=C(NCc1ccccc1)[C@H]1CCCN1c1nc2ncnc(OC3CCOCC3)c2s1` [Example 90], the IC50 came to 130 nM.

Consider `CN(c1nc2ncnc(C3CC3)c2s1)C(C)(C)C(=O)NCc1ccccc1` [Example 92], for which the 50% inhibitory concentration (IC50) stood at 2100 nM.

Regarding `CN(c1nc2ncnc(C3CC3)c2s1)[C@@H](C(=O)NCc1ccccc1)C1CC1` [Example 93], the IC50 worked out at 140 nM.

In the case of `O=C(NCc1ccccc1)[C@H]1CCCN1c1nc2nc(CN3CCOCC3)nc(C3CC3)c2s1` [Example 98], the IC50 turned out to be 75 nM.

Consider `O=C(NCc1ccccc1)[C@H]1CSCN1c1nc2ncnc(C3CC3)c2s1` [Example 100, (S)—N-benzyl-3-(7-cyclopropyl[1,3]thiazolo[4,5-d]pyrimidin-2-yl)-1,3-thiazolidine-4-carboxamide], for which the concentration for half-maximal inhibition (IC50) stood at 240 nM.

With `CCc1nc(-n2nccn2)nc2nc(N3CCC[C@@H]3C(=O)NCc3ccccc3)sc12` [Example 101, (R)—N-benzyl-1-[7-ethyl-5-(2H-1,2,3-triazol-2-yl)[1,3]thiazolo[4,5-d]pyrimidin-2-yl]pyrrolidine-2-carboxamide], the IC50 amounted to 150 nM.

Consider `CCc1nc(-n2nc(C)cc2C)nc2nc(N3CCC[C@@H]3C(=O)NCc3ccccc3)sc12` [Example 103, (R)—N-benzyl-1-[5-(3,5-dimethyl-1H-pyrazol-1-yl)-7-ethyl[1,3]thiazolo[4,5-d]pyrimidin-2-yl]pyrrolidine-2-carboxamide], for which the IC50 is 200 nM.

For the compound `CN(C)c1nc(C2CC2)c2sc(N3CCC[C@@H]3C(=O)NCc3ccccc3)nc2n1` [Example 106, (R)—N-benzyl-1-[7-cyclopropyl-5-(N,N-dimethylamino)[1,3]thiazolo[4,5-d]pyrimidin-2-yl]pyrrolidine-2-carboxamide], the IC50 came to 920 nM.

Consider `Cc1nc2nc(N3CCC[C@@H]3C(=O)NCc3ccccc3)sc2c(=O)n1C` [Example 109, (R)—N-benzyl-1-(5,6-dimethyl-7-oxo-6,7-dihydro[1,3]thiazolo[4,5-d]pyrimidin-2-yl)pyrrolidine-2-carboxamide], for which the IC50 is 840 nM.

`CC(C)c1cnc2nc(N3CCC[C@@H]3C(=O)NCc3ccccc3)sc2c1` [Example 111]: the IC50 amounted to 210 nM.

With `CC(C)(C#N)c1cnc2nc(N3CCC[C@@H]3C(=O)NCc3ccccc3)sc2c1` [Example 113, (R)—N-benzyl-1-[6-(2-cyanopropan-2-yl)[1,3]thiazolo[4,5-b]pyridin-2-yl]pyrrolidine-2-carboxamide], the IC50 is 85 nM.

What is called IC50 is the concentration that inhibits the measured activity by half.
